For the assay, the target named is Thymidine kinase (Herpes simplex virus type 1). The assay can be described thus: Binding affinity towards HSV-1 thymidine kinase was determined.

Results on 1 molecule are retold here after BindingDB's records for doi:10.1021/jm00001a010 (University of Massachusetts Medical School, 1995).

The structures appear in SMILES notation.

Regarding `Nc1nc2c(ncn2CCCCO)c(=O)[nH]1` [2-amino-9-(4-hydroxybutyl)-6,9-dihydro-3H-purin-6-one], the inhibition constant (Ki) worked out at 2060 nM. In other words, the single-digit micromolar range.

Usually Ki stands for a measure of affinity in units of concentration, obtained from inhibition or displacement.
